Consider one molecule from ChEMBL document CHEMBL3877337, “Crystal Structures of ERAP2 Complexed with Inhibitors Reveal Pharmacophore Requirements for Optimizing Inhibitor Potency” (ACS Med Chem Lett, 2017).

The experiment concerns the target Endoplasmic reticulum aminopeptidase 2 (Homo sapiens, UniProt Q6P179). In words: Inhibition of recombinant ERAP2 (unknown origin) expressed in baculovirus infected insect cells using L-arginine-7-amido-4-methylcoumarine as substrate by spectrofluorimetric assay.

Structures are written as SMILES.

Sequence of Endoplasmic reticulum aminopeptidase 2 (Q6P179 whole entry): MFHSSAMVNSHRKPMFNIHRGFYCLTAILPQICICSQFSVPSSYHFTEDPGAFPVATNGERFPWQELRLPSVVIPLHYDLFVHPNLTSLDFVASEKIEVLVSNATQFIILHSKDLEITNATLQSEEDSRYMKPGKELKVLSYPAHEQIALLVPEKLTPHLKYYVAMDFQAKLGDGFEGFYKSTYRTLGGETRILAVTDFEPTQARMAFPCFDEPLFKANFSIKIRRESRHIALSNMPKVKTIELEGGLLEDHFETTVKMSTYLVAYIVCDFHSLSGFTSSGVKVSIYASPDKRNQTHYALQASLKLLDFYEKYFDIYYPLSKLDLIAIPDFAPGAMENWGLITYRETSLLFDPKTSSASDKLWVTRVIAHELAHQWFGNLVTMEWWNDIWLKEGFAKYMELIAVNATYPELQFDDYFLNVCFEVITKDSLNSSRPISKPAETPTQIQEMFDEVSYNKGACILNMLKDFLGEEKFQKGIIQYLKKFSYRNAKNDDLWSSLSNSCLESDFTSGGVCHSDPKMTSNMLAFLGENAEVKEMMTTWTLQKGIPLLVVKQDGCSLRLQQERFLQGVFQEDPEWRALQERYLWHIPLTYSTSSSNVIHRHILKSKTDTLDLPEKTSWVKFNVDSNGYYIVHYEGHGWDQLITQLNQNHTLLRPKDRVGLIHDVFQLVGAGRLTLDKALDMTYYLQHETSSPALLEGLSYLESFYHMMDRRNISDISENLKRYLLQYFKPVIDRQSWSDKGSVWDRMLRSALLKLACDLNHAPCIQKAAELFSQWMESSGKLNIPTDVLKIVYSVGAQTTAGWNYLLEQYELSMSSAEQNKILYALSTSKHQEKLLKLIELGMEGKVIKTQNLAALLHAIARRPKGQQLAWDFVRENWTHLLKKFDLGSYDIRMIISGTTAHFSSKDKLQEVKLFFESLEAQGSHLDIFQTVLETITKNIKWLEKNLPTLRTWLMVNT

With `O=C(NO)C(Cc1ccc(F)cc1)C(=O)NCc1ccccc1` (stereo unspecified), the IC50 is > 100 µM.
